Earlier results on 52 compounds are cited in the CATMoS acute toxicity set (Mansouri et al. 2021).

Structures are written as SMILES.

The data set in a line: rat acute oral toxicity. As to conditions: in vivo. From the text:
[…]The data set underlying the modeling effort for this project was initially compiled by NICEATM and U.S. EPA’s CCTE. Briefly, LD50 data were collected from rat acute oral systemic toxicity tests, including limit tests, ranges/confidence intervals, and discrete LD50 values. The full data set included 21,200 LD50 entries for 15,688 substances. […] Data were reviewed to ensure that LD50 values with obvious errors in the extracted data such as unit conversion errors (e.g., comma and decimal separator misplacements) were either fixed or removed. After this review, 16,209 LD50 values remained. Many of the chemicals represented had multiple LD50 entries, requiring that a single representative value per Chemical Abstracts Service Registry Number (CASRN) identifier be defined to facilitate modeling efforts. Based on ATWG feedback and to define the representative LD50 as a protective value while accounting for the distribution across multiple LD50s, the median of the lowest quartile was computed using only discrete LD50 values (omitting limit test data and range and confidence interval data). A detailed summary of the data compilation is available online on the NICEATM webpage dedicated to the collaborative modeling project (NTP 2020).
[…][…] For categorical designations, limit test and range/confidence interval LD50 data were integrated wherever possible. As such, the number of chemicals with end point values/calls varies across the modeling end points (Table 3) based on whether chemicals had representative LD50 values and/or other data. If a chemical had both, the representative value was used to determine categorical calls rather than limit test data. Some data were useable only for certain end points and categories depending on the thresholds. For example, ranges that spanned multiple hazard categories were considered only for the binary (very toxic/nontoxic) end points and omitted from rendering a determination for hazard category assignment.
[…]The final data set comprising 11,992 chemicals was split into training and evaluation sets […], respectively. This process was performed semirandomly by ordering chemicals based on the five end points (categorical and continuous LD50 values) and partitioning every fourth record into the evaluation set accordingly. This approach was taken to ensure an equivalent distribution of the LD50 values and the different hazard categories between the training and the evaluation sets without supervised sampling of the chemicals based on structures (Figure 1A). The sources of the chemical structures were also kept equivalent between the two sets, with chemical structures obtained from DSSTox, being the highest quality, representing over 75% of each set (Figure 1B).
Regarding `Cc1cc(C)nc(Nc2ccccc2)n1`, the LD50 (usually the dose at which mortality reaches 50%) was 4150 mg/kg.
For `CC(C)OC(=O)OOC(=O)OC(C)C`, the LD50 was 2140 mg/kg.
For `COc1cc2c(cc1OC)[C@@H]1C(=O)c3ccc4c(c3O[C@@H]1CO2)C[C@H](C(C)C)O4`, the LD50 was 2500 mg/kg.
In the case of `C/[N+]([O-])=N/CO[C@@H]1O[C@H](CO)[C@@H](O)[C@H](O)[C@H]1O`, the LD50 is 270 mg/kg.
Take `FC(F)OC(F)(F)C(F)Cl` (configuration not stated): the 50% lethal dose (LD50) is 5450 mg/kg.
In the case of `C=CC(=C)Cl`, the LD50 is 450 mg/kg.
With `c1ccc(C(OCCN2CCOCC2)c2ccccc2)cc1`, the median lethal dose (LD50) was 916 mg/kg.
Regarding `CN=NNc1ccc(I)cc1`, the median lethal dose (LD50) was 499 mg/kg.
Consider `CCOP(=S)(OC)Oc1ccc([N+](=O)[O-])cc1` (configuration not stated), for which the LD50 is 2.85 mg/kg.
Take `Cc1cccc2sc3nncn3c12`: the 50% lethal dose (LD50) is 250 mg/kg.
For the compound `CCCCCCOC(=O)CC#N`, the LD50 was 6440 mg/kg.
Consider `Nc1ccc(F)c(F)c1F`, for which the 50% lethal dose (LD50) is 699 mg/kg.
On to `C=CC(=O)OCCOC(=O)c1ccc(C(=O)O)cc1C(=O)O`, for which the 50% lethal dose (LD50) is 3190 mg/kg.
Consider `COc1ccc2cc(C(C)C(=O)OCC(O)CO)ccc2c1` (configuration not stated), for which the LD50 is 1630 mg/kg.
With `CCOCCOCCCO`, the LD50 was 7060 mg/kg.
As for `O=C(Oc1cccc(O)c1)c1ccccc1`, the median lethal dose (LD50) is 800 mg/kg.
In the case of `Cc1ccccc1C(OC1CC2CCC(C1)N2C)c1ccccc1` (configuration not stated), the median lethal dose (LD50) is 400 mg/kg.
Regarding `COc1ccc(C=O)cc1`, the median lethal dose (LD50) was 1510 mg/kg.
Regarding `CC(=O)c1ccccc1Cl`, the LD50 is 1820 mg/kg.
As for `CCC1(C)Oc2cccc(OC(=O)NC)c2O1` (configuration not stated), the median lethal dose (LD50) is 25 mg/kg.
With `CCCCOP(=O)(OCCO)OCCCC`, the 50% lethal dose (LD50) was 915 mg/kg.
Turning to `CCCCOCCOCC`, the LD50 was 2830 mg/kg.
Regarding `CCCCCC#CC(=O)OC`, the LD50 was 1530 mg/kg.
Regarding `CCOP(=O)(OCC)Oc1ccc(S(C)(=O)=O)c(C)c1`, the LD50 is 8.13 mg/kg.
As to `COP(=S)(OC)OC1C2(C)CCC(C2)C1(C)C` (configuration not stated), the LD50 is 250 mg/kg.
For `CC(C)=CCC(=O)c1ccoc1`, the median lethal dose (LD50) was 25 mg/kg.
As to `Cc1occc1C(=O)Nc1ccccc1`, the LD50 is 12900 mg/kg.
With `CC(=O)O[C@H]1C[C@@H]2CC[C@@H]3[C@H](CC[C@@]4(C)[C@H]3C[C@H]([N+]3(C)CCCCC3)[C@@H]4OC(C)=O)[C@@]2(C)C[C@@H]1[N+]1(C)CCCCC1`, the LD50 was 202 mg/kg.
With `NCCCC1(CCCN)c2ccccc2-c2ccccc21`, the 50% lethal dose (LD50) is 620 mg/kg.
On to `O=C(c1ccc(O)cc1O)c1ccc(O)cc1O`, for which the LD50 was 1220 mg/kg.
In the case of `S=c1[nH]n(-c2ccccc2)c(=S)s1`, the LD50 was 763 mg/kg.
With `C=COCCOCC1CO1` (configuration not stated), the LD50 was 2440 mg/kg.
`NC1=C(Cl)C(=O)c2ccccc2C1=O`: the 50% lethal dose (LD50) was 1360 mg/kg.
As for `CCCC(C)CCOC(=O)c1ccccc1C(=O)OCCC(C)CCC` (configuration not stated), the 50% lethal dose (LD50) was 35500 mg/kg.
Take `COC(=O)C(c1ccccc1Cl)N1CCc2sccc2C1` (configuration not stated): the 50% lethal dose (LD50) is 1910 mg/kg.
For `CC(=O)NC(=O)c1ccccc1O`, the 50% lethal dose (LD50) was 1800 mg/kg.
With `CC(C)N(C)C`, the LD50 is 684 mg/kg.
Regarding `O=c1n(CC2CO2)c(=O)n(CC2CO2)n1CC1CO1` (configuration not stated), the LD50 is 250 mg/kg.
With `CCOC1CC2CN3CCc4c([nH]c5cc(OC)ccc45)C3CC2C(C(=O)OC)C1OC` (configuration not stated), the 50% lethal dose (LD50) was 187 mg/kg.
For `COc1ccccc1N1CCN(CCCOc2ccc(N)cc2)CC1`, the median lethal dose (LD50) is 416 mg/kg.
Turning to `CC(NNC(=O)c1ccccc1)c1ccccc1` (configuration not stated), the LD50 was 675 mg/kg.
For `COc1ccc2c(c1)c(CC(=O)Oc1cccc(C)c1)c(C)n2C(=O)c1ccc(Cl)cc1`, the LD50 was 98 mg/kg.
`COC(=S)SSC(=S)OC`: the 50% lethal dose (LD50) is 240 mg/kg.
As to `Cc1nc(C)c(C(=O)Nc2ccccc2)s1`, the LD50 was 3930 mg/kg.
As to `C1CCC(C(CC2CCCCN2)C2CCCCC2)CC1` (configuration not stated), the LD50 was 2150 mg/kg.
For `COc1cc(Br)c2oc(C3CCNCC3)cc2c1`, the LD50 is 310 mg/kg.
In the case of `CCN1C[C@H]2CN(C)C[C@@H](C1)C2OC(=O)c1ccc(Cl)cc1` (some centres not stated), the 50% lethal dose (LD50) was 383 mg/kg.
As for `Nc1ccc(-c2ccccc2N)cc1`, the LD50 was 311 mg/kg.
For `C[C@H]1O[C@@H](O[C@H]2[C@@H](O)C[C@H](O[C@H]3[C@@H](O)C[C@H](O[C@H]4CC[C@@]5(C)[C@H](CC[C@@H]6[C@@H]5C[C@@H](O)[C@]5(C)[C@@H](C7=CC(=O)OC7)CC[C@]65O)C4)O[C@@H]3C)O[C@@H]2C)C[C@H](O)[C@@H]1O`, the median lethal dose (LD50) is 28.3 mg/kg.
As for `O=C1CN(/N=C/c2ccc([N+](=O)[O-])o2)C(O)=N1`, the LD50 is 1490 mg/kg.
Regarding `CCCCCCC[N+](CC)(CC)CCCCc1ccc(Cl)cc1`, the LD50 was 456 mg/kg.
With `C/C=N/O`, the LD50 is 740 mg/kg.
